Where a name gives a salt, the structure may show the parent alone. Read-outs that look alike come from different tables or passages of the source.
What was measured:
SUDHL10 [1] = test: Induction of cytotoxicity (Assay 6), SUDHL10
Experimental: Assay 6 Induction of Cytotoxicity Upon Treatment of Cells with Selected Compounds
Therefore, cytotoxicity assays were run in parallel in SUDHL5 and SUDHL10 cells.
The different cell lines were plated in culture medium (RPMI 1640 [GIBCO #22400-089]supplemented with 10% Fetal Bovine Serum) at a density of 3,300 cells in 30 μL/well in a sterile, solid black, flat bottom, polystyrene, TC-treated 384-well microplate (Corning #3571) using Multidrop Combi Reagent Dispenser. As a control, medium without cells was also added to the plate. Cells were incubated in a humidified incubator at 37° C. overnight. […] Rim wells were excluded. The cells were incubated for 5 hours in a humidified incubator at 37° C. After this incubation, 30 μL of CellTiter-Glo® Luminescent Cell Viability reagent (Promega, G7573) was added to each well using the Multidrop Combi Reagent Dispenser, followed by 15 minutes incubation on a shaker at room temperature. Finally, luminescence was read at 0.1 ms, with a gain of 3000 using the PHERAstar FS microplate reader (BMG Labtech).

SUDHL5 [2] = test: Antiproliferation assay 7, SUDHL5; assay type: cell-based; details: SUDHL5 cells, CellTiter-Glo, read-out: Antiproli SUDHL5 IC50 (median)
Summary of the method: (§1)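 Proliferation over 72 h at 37° C was assessed by luminescent cell viability reagent, referenced to a day 0 plate.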

SUDHL10 [3] = test: Induction of caspase-3/7 activity (Assay 4), SUDHL10; assay type: cell-based; details: SUDHL10 cells
Summary of the method: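 Luminescent Caspase-Glo 3/7 read-out after a 3 h, 37 °C compound exposure of the DLBCL line SUDHL10. Values are background-corrected using medium-only wells.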

MV-4-11 = test: Antiproliferation assay 7, MV-4-11; assay type: cell-based; details: MV-4-11 cells, CellTiter-Glo, read-out: Antiproli MV-4-11 IC50 median
Experimental: (§2) Assessment of the Anti-Proliferative Effect of Compounds in Different Cell Lines
(§3) The impact of compounds on the proliferation of different cell lines was assessed using the CellTiter-Glo® Luminescent Cell Viability reagent from Promega (G7573).
(§4) In parallel, cells were plated in a reference (day 0) plate for time zero determination.
(§5) Rim wells were excluded. The cells were incubated for 72 hours in a humidified incubator at 37° C. The day 0 plate was measured by adding 30 μL/well of CTG solution (CellTiter-Glo® Luminescent Cell Viability reagent, Promega G7573) to time zero wells in the reference plate followed by a 10 minutes incubation and luminescence reading at 0.1 ms. using the PHERAstar FS microplate reader (BMG Labtech).
(§6) After 72 hours incubation, the treated plates were measured in the same way as the day 0 plate mentioned above.

AMO-1 = test: Antiproliferation assay 7, AMO-1; assay type: cell-based; details: AMO-1 cells, CellTiter-Glo, read-out: Antiproli AMO-1 IC50 median
Summary of the method: as §1

HMC-1-8 = test: Antiproliferation assay 7, HMC-1-8; assay type: cell-based; details: HMC-1-8 cells, CellTiter-Glo, read-out: Antiproli HMC-1-8 IC50 median
Experimental: as §2, §3, §4, §5, §6

SUDHL5 [4] = test: Induction of caspase-3/7 activity (Assay 4), SUDHL5; assay type: cell-based; details: SUDHL5 cells
Summary of the method: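 DLBCL cells treated with compounds for 3 hours at 37° C. Caspase-3/7 activity measured by Caspase-Glo 3/7 luminescence, with medium-only background subtracted.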

SUDHL5 [5] = test: Induction of cytotoxicity (Assay 6), SUDHL5
[6] = read-out: Cytotox SUDHL10 IC50 (median), SUDHL10 cells, 5 hours, CellTiter-Glo
[7] = 3 hours, Caspase-Glo 3/7, read-out: Caspase SUDHL10 EC50 (median)
[8] = 3 hours, Caspase-Glo 3/7, read-out: Caspase SUDHL5 EC50 (median)
[9] = read-out: Cytotox SUDHL5 IC50 (median), SUDHL5 cells, 5 hours, CellTiter-Glo
[10] = Homo sapiens, SU-DHL-5, 3 h, Caspase-Glo 3/7, read-out: Caspase SUDHL5 EC50 (median)
[11] = Homo sapiens, SU-DHL-5, 5 h, read-out: Cytotox SUDHL5 IC50 (median), SUDHL5 cells, 5 hours, CellTiter-Glo

| Compound | IC50 (SUDHL10 [1]; [6]) [nM] | IC50 (SUDHL5 [2]; 72 hours) [nM] | EC50 (SUDHL10 [3]; [7]) [nM] | IC50 (MV-4-11; 72 hours) [nM] | IC50 (AMO-1; 72 hours) [nM] | IC50 (HMC-1-8; 72 h) [nM] | EC50 (SUDHL5 [4]; [8]) [nM] | IC50 (SUDHL5 [5]; [9]) [nM] | IC50 (SUDHL10 [1]; Homo sapiens, SU-DHL10, 5 h, read-out: Cytotox SUDHL10 IC50 (median), SUDHL10 cells, 5 hours, CellTiter-Glo) [nM] | IC50 (SUDHL5 [2]; Homo sapiens, SU-DHL-5, 72 h) [nM] | EC50 (SUDHL10 [3]; Homo sapiens, SU-DHL10, 3 h, Caspase-Glo 3/7, read-out: Caspase SUDHL10 EC50 (median)) [nM] | IC50 (MV-4-11; Homo sapiens, MV4-11, 72 h) [nM] | IC50 (AMO-1; Homo sapiens, AMO1, 72 h) [nM] | EC50 (SUDHL5 [4]; [10]) [nM] | IC50 (SUDHL5 [5]; [11]) [nM] | IC50 (HMC-1-8; 72 hours) [nM] |
| --- | --- | --- | --- | --- | --- | --- | --- | --- | --- | --- | --- | --- | --- | --- | --- | --- |
| CCc1c2c(nn1C)CN(C)CCCCn1c(C(=O)O)c(CCCOc3cccc4cc(F)ccc34)c3ccc(Cl)c-2c31 (single isomer, unassigned; enantiomer 1) [Example 6, 4-chloro-3-ethyl-7-{3-[(6-fluoronaphthalen-1-yl)oxy]propyl}-2,14-dimethyl-10,11,12,13,14,15-hexahydro-2H-pyrazolo[3′,4′:8,9][1,6]diazacycloundecino[10,11,1-hi]indole-8-carboxylic Acid (Enantiomer 1)] | 350 | 230 | 340 | 79.4 | 369 | 1210 | 130 | 190 | – | – | – | – | – | – | – | – |
| Cc1c2c(nn1C)COCCCCn1c(C(=O)O)c(CCCOc3cccc4cc(F)ccc34)c3ccc(Cl)c-2c31 (single isomer, unassigned; enantiomer 1) [Example 16, (−)-4-chloro-7-{3-[(6-fluoronaphthalen-1-yl)oxy]propyl}-2,3-dimethyl-2,10,11,12,13,15-hexahydropyrazolo[4′,3′:9,10][1,6]oxazacycloundecino[8,7,6-hi]indole-8-carboxylic Acid (Enantiomer 1)] | – | – | – | – | – | 1250 | – | – | 660 | 210 | 380 | 524 | 519 | 150 | 220 | – |
| CCc1c2c(nn1C)CN(C)CCCCn1c(C(=O)O)c(CCCOc3cccc4ccccc34)c3ccc(Cl)c-2c31 (single isomer, unassigned; enantiomer 1) [Example 23, 4-chloro-3-ethyl-2,14-dimethyl-7-[3-(naphthalen-1-yloxy)propyl]-10,11,12,13,14,15-hexahydro-2H-pyrazolo[3′,4′:8,9][1,6]diazacycloundecino[10,11,1-hi]indole-8-carboxylic Acid (Enantiomer 1)] | 310 | – | – | 387 | – | 5160 | 92 | 140 | – | – | – | – | 613 | – | – | – |
| CCc1nn(C)c2c1-c1c(Cl)ccc3c(CCCOc4cccc5cc(F)ccc45)c(C(=O)O)n(c13)CCCCOC2 (single isomer, unassigned; enantiomer 1) [Example 34, (+)-4-chloro-3-ethyl-7-{3-[(6-fluoronaphthalen-1-yl)oxy]propyl}-1-methyl-1,10,11,12,13,15-hexahydropyrazolo[4′,3′:9,10][1,6]oxazacycloundecino[8,7,6-hi]indole-8-carboxylic Acid (Enantiomer 1)] | – | 620 | – | 1260 | 1410 | 2030 | 380 | 530 | – | – | – | – | – | – | – | – |
| CCc1c2c(nn1C)COCCCCn1c(C(=O)O)c(CCCOc3cccc4cc(F)ccc34)c3ccc(Cl)c-2c31 (single isomer, unassigned; enantiomer 1) [Example 37, (+)-4-chloro-3-ethyl-7-{3-[(6-fluoronaphthalen-1-yl)oxy]propyl}-2-methyl-2,10,11,12,13,15-hexahydropyrazolo[4′,3′:9,10][1,6]oxazacycloundecino[8,7,6-hi]indole-8-carboxylic acid-N-ethylethanamine Salt (Enantiomer 1)] | – | 280 | – | 377 | 363 | 1130 | 170 | 200 | – | – | – | – | – | – | – | – |
| Cc1c2c(nn1C)CN(CC(F)(F)F)CCCCn1c(C(=O)O)c(CCCOc3cccc4cc(F)ccc34)c3ccc(Cl)c-2c31 (single isomer, unassigned; enantiomer 1) [Example 59, 4-chloro-7-{3-[(6-fluoronaphthalen-1-yl)oxy]propyl}-2,3-dimethyl-14-(2,2,2-trifluoroethyl)-10,11,12,13,14,15-hexahydro-2H-pyrazolo[3′,4′:8,9][1,6]diazacycloundecino[10,11,1-hi]indole-8-carboxylic Acid—Enantiomer 1] | 550 | 340 | 490 | – | 216 | – | 240 | 310 | – | – | – | – | – | – | – | 1120 |
| CCc1c2c(nn1C)N(CCC1CCOCC1)CCCCCn1c(C(=O)O)c(CCCOc3cccc4cc(F)ccc34)c3ccc(Cl)c-2c31 (single isomer, unassigned; enantiomer 1) [Example 81, 4-chloro-3-ethyl-7-{3-[(6-fluoronaphthalen-1-yl)oxy]propyl}-2-methyl-15-[2-(oxan-4-yl)ethyl]-10,11,12,13,14,15-hexahydro-2H-pyrazolo[4′,3′:4,5][1,6]diazacycloundecino[3,2,1-hi]indole-8-carboxylic acid N-ethylethanamine Salt—Enantiomer 1] | 230 | 320 | 170 | – | – | 1900 | 220 | 290 | – | – | – | – | 120 | – | – | – |
| Cc1c2c(nn1C)COCC(F)(F)CCn1c(C(=O)O)c(CCCOc3cccc4ccccc34)c3ccc(Cl)c-2c31 (single isomer, unassigned; enantiomer 2) [Example 57, 4-chloro-12,12-difluoro-2,3-dimethyl-7-{3-[(naphthalen-1-yl)oxy]propyl}-2,10,11,12,13,15-hexahydropyrazolo[4′,3′:9,10][1,6]oxazacycloundecino[8,7,6-hi]indole-8-carboxylic acid-N-ethylethanamine Salt—Enantiomer 2] | 10000 | 3900 | 13000 | – | 11800 | – | 7600 | 6900 | – | – | – | – | – | – | – | 8680 |
| Cc1c2c(nn1C)CN(CC(F)(F)F)CCCCn1c(C(=O)O)c(CCCOc3cccc4cc(F)ccc34)c3ccc(Cl)c-2c31 (single isomer, unassigned; enantiomer 2) [Example 60, 4-chloro-7-{3-[(6-fluoronaphthalen-1-yl)oxy]propyl}-2,3-dimethyl-14-(2,2,2-trifluoroethyl)-10,11,12,13,14,15-hexahydro-2H-pyrazolo[3′,4′:8,9][1,6]diazacycloundecino[10,11,1-hi]indole-8-carboxylic Acid—Enantiomer 2] | 26000 | 20000 | 27000 | – | 25500 | – | 9000 | 12000 | – | – | – | – | – | – | – | > 30000 |
| Cc1c2c(nn1C)OCCCCCn1c(C(=O)O)c(CCCOc3cccc4cc(F)ccc34)c3ccc(Cl)c-2c31 (single isomer, unassigned; enantiomer 2) [Example 85, 4-chloro-7-{3-[(6-fluoronaphthalen-1-yl)oxy]propyl}-2,3-dimethyl-11,12,13,14-tetrahydro-2H,10H-pyrazolo[3′,4′:2,3][1,6]oxazacycloundecino[4,5,6-hi]indole-8-carboxylic Acid—Enantiomer 2] | 25000 | 13000 | 25000 | – | 6100 | – | 9700 | 17000 | – | – | – | – | – | – | – | > 30000 |
| Cc1c2c(nn1C)COCC1CCC1Cn1c(C(=O)O)c(CCCOc3cccc4ccccc34)c3ccc(Cl)c-2c31 (single isomer, unassigned; stereoisomer 1) [Example 63] | 3300 | – | 3100 | – | 2560 | 7850 | – | – | – | 2600 | – | – | – | 1400 | 1500 | – |
